Laboratory results as given in ChEMBL document CHEMBL1201862, “PubChem BioAssay data set” (2004).
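Where inhibition never reached the appropriate level, the endpoint shown equals the highest concentration tested. Otherwise, values were interpolated linearly from a five-concentration, 48-hour dose response in 96-well plates. At the GI50, growth is halved.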 Activity calls are given as the source filed them. No stated cut-off is given here; in the data, active = GI50 up to about 1.1 µM and inactive = higher.

Tests used:
Assay in all cases: NCI-60 cell line screen, 48 h
T47D = tested on: T47D
KM12 = tested on: KM12
U-251 = tested on: U-251
RPMI-8226 = tested on: RPMI-8226
MCF7 = tested on: MCF7
M14 = tested on: M14
NCI/ADR-RES = tested on: NCI/ADR-RES
COLO 205 = tested on: COLO 205
OVCAR-3 = tested on: OVCAR-3
HCC 2998 = tested on: HCC 2998
CCRF-CEM = tested on: CCRF-CEM
IGROV-1 = tested on: IGROV-1
MDA-MB-435 = tested on: MDA-MB-435
HCT-116 = tested on: HCT-116
HCT-15 = tested on: HCT-15
UO-31 = tested on: UO-31
NCI-H460 = tested on: NCI-H460
SK-OV-3 = tested on: SK-OV-3
MOLT-4 = tested on: MOLT-4
PC-3 = tested on: PC-3
BT-549 = tested on: BT-549
Hs-578T = tested on: Hs-578T
NCI-H522 = tested on: NCI-H522
SK-MEL-2 = tested on: SK-MEL-2
HOP-92 = tested on: HOP-92
K562 = tested on: K562
SK-MEL-28 = tested on: SK-MEL-28
OVCAR-5 = tested on: OVCAR-5
UACC-62 = tested on: UACC-62
RXF 393 = tested on: RXF 393
HL-60 = tested on: HL-60
SNB-19 = tested on: SNB-19
NCI-H226 = tested on: NCI-H226
SK-MEL-5 = tested on: SK-MEL-5
DU-145 = tested on: DU-145
MDA-N = tested on: MDA-N
SNB-75 = tested on: SNB-75
SF-295 = tested on: SF-295
CAKI-1 = tested on: CAKI-1
OVCAR-8 = tested on: OVCAR-8
NCI-H23 = tested on: NCI-H23
SN12C = tested on: SN12C
SR = tested on: SR
HOP-62 = tested on: HOP-62
Malme-3M = tested on: Malme-3M
TK-10 = tested on: TK-10
SW-620 = tested on: SW-620
SF-268 = tested on: SF-268
A549 = tested on: A549
HT-29 = tested on: HT-29
786-0 = tested on: 786-0
LOX IMVI = tested on: LOX IMVI
OVCAR-4 = tested on: OVCAR-4
ACHN = tested on: ACHN
MDA-MB-231 = tested on: MDA-MB-231
SF-539 = tested on: SF-539
UACC-257 = tested on: UACC-257
A498 = tested on: A498
EKVX = tested on: EKVX

CCOC(=O)CCC(NC(=O)OCc1ccccc1)C(=O)NC(CCC(=O)OCC)C(=O)NNC(=O)OC(C)(C)C (stereo not given)
GI50 (T47D): > 100 µM (inactive) | GI50 (KM12): > 100 µM (inactive) | GI50 (U-251): > 100 µM (inactive) | GI50 (RPMI-8226): > 100 µM (inactive) | GI50 (MCF7): > 100 µM (inactive) | GI50 (M14): > 100 µM (inactive) | GI50 (NCI/ADR-RES): > 100 µM (inactive) | GI50 (COLO 205): > 100 µM (inactive) | GI50 (OVCAR-3): > 100 µM (inactive) | GI50 (HCC 2998): > 100 µM (inactive) | GI50 (CCRF-CEM): 38.5 µM (inactive) | GI50 (IGROV-1): > 100 µM (inactive) | GI50 (MDA-MB-435): > 100 µM (inactive) | GI50 (HCT-116): > 100 µM (inactive) | GI50 (HCT-15): > 100 µM | GI50 (UO-31): > 100 µM (inactive) | GI50 (NCI-H460): > 100 µM (inactive) | GI50 (SK-OV-3): > 100 µM (inactive) | GI50 (MOLT-4): 28.2 µM (inactive) | GI50 (PC-3): 38.8 µM (inactive) | GI50 (BT-549): > 100 µM (inactive) | GI50 (Hs-578T): > 100 µM (inactive) | GI50 (NCI-H522): > 100 µM (inactive) | GI50 (SK-MEL-2): > 100 µM (inactive) | GI50 (HOP-92): > 100 µM (inactive) | GI50 (K562): > 100 µM (inactive) | GI50 (SK-MEL-28): > 100 µM (inactive) | GI50 (OVCAR-5): > 100 µM (inactive) | GI50 (UACC-62): > 100 µM (inactive) | GI50 (RXF 393): 18.7 µM (inactive) | GI50 (HL-60): > 100 µM (inactive) | GI50 (SNB-19): > 100 µM (inactive) | GI50 (NCI-H226): 36.6 µM (inactive) | GI50 (SK-MEL-5): > 100 µM (inactive) | GI50 (DU-145): > 100 µM (inactive) | GI50 (MDA-N): > 100 µM (inactive) | GI50 (SNB-75): > 100 µM (inactive) | GI50 (SF-295): > 100 µM (inactive) | GI50 (CAKI-1): > 100 µM (inactive) | GI50 (OVCAR-8): > 100 µM (inactive) | GI50 (NCI-H23): > 100 µM (inactive) | GI50 (SN12C): > 100 µM (inactive) | GI50 (SR): > 100 µM (inactive) | GI50 (HOP-62): > 100 µM (inactive) | GI50 (Malme-3M): > 100 µM (inactive)

CC(C(=O)N1C(=O)N(C(=O)C(C)C(O)c2ccccc2)C(c2ccccc2)C1c1ccccc1)C(O)c1ccccc1 (stereo not given)
GI50 (TK-10): 22.6 µM (inactive) | GI50 (T47D): 6.47 µM (inactive) | GI50 (SW-620): 28.7 µM (inactive) | GI50 (KM12): 3.34 µM (inactive) | GI50 (SF-268): 13.4 µM (inactive) | GI50 (U-251): 10.4 µM (inactive) | GI50 (RPMI-8226): 4.01 µM (inactive) | GI50 (A549): 4.85 µM (inactive) | GI50 (MCF7): 4.43 µM (inactive) | GI50 (M14): 10.5 µM (inactive) | GI50 (HT-29): 5 µM (inactive) | GI50 (COLO 205): 13.3 µM (inactive) | GI50 (OVCAR-3): 5.94 µM (inactive) | GI50 (786-0): 26.1 µM (inactive) | GI50 (HCC 2998): 20.9 µM (inactive) | GI50 (CCRF-CEM): 5.56 µM (inactive) | GI50 (IGROV-1): 12.7 µM (inactive) | GI50 (MDA-MB-435): 15 µM (inactive) | GI50 (LOX IMVI): 11.9 µM (inactive) | GI50 (HCT-116): 6.21 µM (inactive) | GI50 (HCT-15): 15.5 µM | GI50 (UO-31): 5.33 µM (inactive) | GI50 (NCI-H460): 4.25 µM (inactive) | GI50 (MOLT-4): 3.66 µM (inactive) | GI50 (BT-549): 12.6 µM (inactive) | GI50 (Hs-578T): 11.1 µM (inactive) | GI50 (NCI-H522): 7.19 µM (inactive) | GI50 (SK-MEL-2): 10.2 µM (inactive) | GI50 (HOP-92): 5.92 µM (inactive) | GI50 (OVCAR-4): 13.4 µM (inactive) | GI50 (K562): 4.47 µM (inactive) | GI50 (SK-MEL-28): 15.8 µM (inactive) | GI50 (UACC-62): 10.5 µM (inactive) | GI50 (RXF 393): 6.21 µM (inactive) | GI50 (HL-60): 2.27 µM (inactive) | GI50 (SNB-19): 5.52 µM (inactive) | GI50 (NCI-H226): 12.4 µM (inactive) | GI50 (SK-MEL-5): > 10 µM (inactive) | GI50 (DU-145): 21.3 µM (inactive) | GI50 (MDA-N): > 10 µM (inactive) | GI50 (SNB-75): 3.9 µM (inactive) | GI50 (SF-295): 2.84 µM (inactive) | GI50 (OVCAR-8): 7.98 µM (inactive) | GI50 (ACHN): 6.7 µM (inactive) | GI50 (NCI-H23): 16.5 µM (inactive) | GI50 (MDA-MB-231): 16.6 µM (inactive) | GI50 (SN12C): 12.9 µM (inactive) | GI50 (SR): 3.61 µM (inactive) | GI50 (HOP-62): 12.3 µM (inactive) | GI50 (Malme-3M): 12.2 µM (inactive) | GI50 (SF-539): 6.25 µM (inactive)

O=C(Cc1ccccc1)NN1C(=O)/C(=C\c2ccccc2)S/C1=N\c1ccccc1
GI50 (TK-10): > 100 µM (inactive) | GI50 (UACC-257): > 100 µM (inactive) | GI50 (T47D): > 100 µM (inactive) | GI50 (SW-620): > 100 µM (inactive) | GI50 (KM12): > 100 µM (inactive) | GI50 (SF-268): > 100 µM (inactive) | GI50 (U-251): > 100 µM (inactive) | GI50 (A549): > 100 µM (inactive) | GI50 (MCF7): > 100 µM (inactive) | GI50 (M14): > 100 µM (inactive) | GI50 (NCI/ADR-RES): > 100 µM (inactive) | GI50 (HT-29): > 100 µM (inactive) | GI50 (COLO 205): > 100 µM (inactive) | GI50 (OVCAR-3): > 100 µM (inactive) | GI50 (A498): > 100 µM (inactive) | GI50 (786-0): > 100 µM (inactive) | GI50 (HCC 2998): > 100 µM (inactive) | GI50 (IGROV-1): > 100 µM (inactive) | GI50 (MDA-MB-435): > 100 µM (inactive) | GI50 (HCT-116): > 100 µM (inactive) | GI50 (HCT-15): > 100 µM | GI50 (UO-31): > 100 µM (inactive) | GI50 (NCI-H460): > 100 µM (inactive) | GI50 (SK-OV-3): > 100 µM (inactive) | GI50 (MOLT-4): > 100 µM (inactive) | GI50 (BT-549): > 100 µM (inactive) | GI50 (Hs-578T): > 100 µM (inactive) | GI50 (SK-MEL-2): > 100 µM (inactive) | GI50 (HOP-92): > 100 µM (inactive) | GI50 (OVCAR-4): > 100 µM (inactive) | GI50 (SK-MEL-28): > 100 µM (inactive) | GI50 (OVCAR-5): > 100 µM (inactive) | GI50 (UACC-62): > 100 µM (inactive) | GI50 (RXF 393): > 100 µM (inactive) | GI50 (SNB-19): > 100 µM (inactive) | GI50 (NCI-H226): > 100 µM (inactive) | GI50 (SK-MEL-5): > 100 µM (inactive) | GI50 (DU-145): > 100 µM (inactive) | GI50 (MDA-N): > 100 µM (inactive) | GI50 (SNB-75): > 100 µM (inactive) | GI50 (SF-295): > 100 µM (inactive) | GI50 (EKVX): > 100 µM (inactive) | GI50 (OVCAR-8): > 100 µM (inactive) | GI50 (ACHN): > 100 µM (inactive) | GI50 (NCI-H23): > 100 µM (inactive) | GI50 (MDA-MB-231): > 100 µM (inactive) | GI50 (SN12C): > 100 µM (inactive) | GI50 (HOP-62): > 100 µM (inactive) | GI50 (SF-539): > 100 µM (inactive)
